Tests used:
HCV = details: cited from earlier work
HCV NS5B = molecular target: T1, HCV NS5B (Hepatitis C virus genotype 1b, UniProt Q9WMX2); assay: HCV NS5B RdRp enzyme assay; type: biochemical; details: HCV NS5B RdRp genotype 1b; standard or modified assay not specified
T1 construct: The protein was expressed with an 18 amino acid C-terminal truncation to enhance the solubility; made in house; host or cells: E. coli BL21(DE3)
Method: HCV NS5B RdRp cloning, expression, and purification. The cDNA encoding the NS5B protein of HCV, genotype 1b, was cloned into the pET21a expression vector. The protein was expressed with an 18 amino acid C-terminal truncation to enhance the solubility. The E. coli competent cell line BL21(DE3) was used for expression of the protein. Cultures were grown at 37° C. for ˜4 hours until the cultures reached an optical density of 2.0 at 600 nm. The cultures were cooled to 20° C. and induced with 1 mM IPTG. Fresh ampicillin was added to a final concentration of 50 μg/ml and the cells were grown overnight at 20° C.
Cell pellets (3 L) were lysed for purification to yield 15-24 mgs of purified NS5B. The lysis buffer consisted of 20 mM Tris-HCl, pH 7.4, 500 mM NaCl, 0.5% triton X-100, 1 mM DTT, 1 mM EDTA, 20% glycerol, 0.5 mg/ml lysozyme, 10 mM MgCl2, 15 ug/ml deoxyribonuclease I, and Complete TM protease inhibitor tablets (Roche). After addition of the lysis buffer, frozen cell pellets were resuspended using a tissue homogenizer. To reduce the viscosity of the sample, aliquots of the lysate were sonicated on ice using a microtip attached to a Branson sonicator. The sonicated lysate was centrifuged at 100,000×g for 1 hr at 4° C. and filtered through a 0.2 μm filter unit (Corning).
The protein was purified using three sequential chromatography steps: Heparin sepharose CL-6B, polyU sepharose 4B, and Hitrap SP sepharose (Pharmacia). The chromatography buffers were identical to the lysis buffer but contained no lysozyme, deoxyribonuclease I, MgCl2 or protease inhibitor and the NaCl concentration of the buffer was adjusted according to the requirements for charging the protein onto the column. Each column was eluted with a NaCl gradient which varied in length from 5-50 column volumes depending on the column type. After the final chromatography step, the resulting purity of the enzyme is >90% based on SDS-PAGE analysis. The enzyme was aliquoted and stored at −80° C.
Standard HCV NS5B RdRp enzyme assay. HCV RdRp genotype 1b assays were run in a final volume of 60 μl in 96 well plates (Costar 3912). The assay buffer is composed of 20 mM Hepes, pH 7.5, 2.5 mM KCl, 2.5 mM MgCl2, 1 mM DTT, 1.6 U RNAse inhibitor (Promega N2515), 0.1 mg/ml BSA (Promega R3961), and 2% glycerol. All compounds were serially diluted (3-fold) in DMSO and diluted further in water such that the final concentration of DMSO in the assay was 2%. HCV RdRp genotype 1b enzyme was used at a final concentration of 28 nM. A polyA template was used at 6 nM, and a biotinylated oligo-dT12 primer was used at 180 nM final concentration. Template was obtained commercially (Amersham 27-4110). Biotinylated primer was prepared by Sigma Genosys. 3H-UTP was used at 0.6 μCi (0.29 μM total UTP). Reactions were initiated by the addition of enzyme, incubated at 30° C. for 60 min, and stopped by adding 25 μl of 50 mM EDTA containing SPA beads (4 μg/μl, Amersham RPNQ 0007). Plates were read on a Packard Top Count NXT after >1 hr incubation at room temperature.
Modified HCV NS5B RdRp enzyme assay. A modified enzyme assay was performed essentially as described for the standard enzyme assay except for the following: The biotinylated oligo dT12 primer was precaptured on streptavidin-coated SPA beads by mixing primer and beads in assay buffer and incubating at room temperature for one hour. Unbound primer was removed after centrifugation. The primer-bound beads were resuspended in 20 mM Hepes buffer, pH 7.5 and used in the assay at final concentrations of 20 nM primer and 0.67 μg/μl beads. Order of addition in the assay: enzyme (14 nM) was added to diluted compound followed by the addition of a mixture of template (0.2 nM), 3H-UTP (0.6 μCi, 0.29 μM), and primer-bound beads, to initiate the reaction; concentrations given are final. Reactions were allowed to proceed for 4 hours at 30° C.
IC50 values for compounds were determined using seven different [I]. […]

HCV replicon = HCV replicon assay (FRET / luciferase reporter); type: cell-based, HCV (HUH-7 cells); details: Hepatitis C virus; HCV replicon cells
Description: FRET Assay Preparation. To perform the HCV FRET screening assay, 96-well cell culture plates were used. The FRET peptide (Anaspec, Inc.) (Taliani et al., Anal. Biochem. 1996, 240, 60-67) contains a fluorescence donor, EDANS, near one end of the peptide and an acceptor, DABCYL, near the other end. The fluorescence of the peptide is quenched by […] resonance energy transfer (RET) between the donor and the acceptor, but as the NS3 protease cleaves the peptide the products are released from RET quenching and the fluorescence of the donor becomes apparent. The assay reagent was made as follows: 5× cell Luciferase cell culture lysis reagent from Promega (#E153A) diluted to 1× with dH2O, NaCl added to 150 mM final, the FRET peptide diluted to 20 μM final from a 2 mM stock.
To prepare plates, HCV replicon cells, with or without a Renilla luciferase reporter gene, were trypsinized and placed into each well of a 96-well plate with titrated test compounds added in columns 3 through 12; columns 1 and 2 contained a control compound (HCV protease inhibitor), and the bottom row contained cells without compound. The plates were then placed in a CO2 incubator at 37° C.
Assays. Subsequent to addition of the test compounds described above (FRET Assay Preparation), at various times the plate was removed and Alamar blue solution (Trek Diagnostics, #00-100) was added per well as a measure of cellular toxicity. After reading in a Cytoflour 4000 instrument (PE Biosystems), plates were rinsed with PBS and then used for FRET assay by the addition of 30 ul of the FRET peptide assay reagent described above (FRET Assay Preparation) per well. The plate was then placed into the Cytoflour 4000 instrument which had been set to 340 excite/490 emission, automatic mode for 20 cycles and the plate read in a kinetic mode. Typically, the signal to noise using an endpoint analysis after the reads was at least three-fold. Alternatively, after Alamar blue reading, plates were rinsed with PBS, 50 ul of DMEM (high glucose) without phenol red was added and plates were then used for luciferase assay using the Promega Dual-Glo Luciferase Assay System.
Compound analysis was determined by quantification of the relative HCV replicon inhibition and the relative cytotoxicity values. To calculate cytoxicity values, the average Alamar Blue fluorescence signals from the control wells were set as 100% non-toxic. The individual signals in each of the compound test wells were then divided by the average control signal and multiplied by 100% to determine […]. To calculate the HCV replicon inhibition values, an average background value was obtained from the two wells containing the highest amount of HCV protease inhibitor at the end of the assay period. These numbers were similar to those obtained from naïve Huh-7 cells.
The background numbers were then subtracted from the average signal obtained from the control wells and this number was used as 100% activity. The individual signals in each of the compound test wells were then divided by the averaged control values after background subtraction and multiplied by 100% to determine percent activity. EC50 values for a protease inhibitor titration were calculated as the concentration which caused a 50% reduction in FRET or luciferase activity. The two numbers generated for the compound plate, percent cytoxicity and percent activity were used to determine compounds of interest for further analysis.
The HCV replicon luciferase assay was developed to monitor the inhibitory effects of compounds described in the disclosure on HCV viral replication. Utilization of a replicon luciferase reporter assay was first described by Krieger et al (Krieger N, Lohmann V, and Bartenschlager R, J. Virol. 75(10):4614-4624 (2001)). HUH-7 cells, constitutively expressing the HCV replicon, were grown in Dulbecco's Modified Eagle Media (DMEM) (Gibco-BRL) containing 10% Fetal calf serum (FCS) (Sigma) and 1 mg/ml G418 (Gibco-BRL). […]

T1 sequence (Q9WMX2 2420-2992): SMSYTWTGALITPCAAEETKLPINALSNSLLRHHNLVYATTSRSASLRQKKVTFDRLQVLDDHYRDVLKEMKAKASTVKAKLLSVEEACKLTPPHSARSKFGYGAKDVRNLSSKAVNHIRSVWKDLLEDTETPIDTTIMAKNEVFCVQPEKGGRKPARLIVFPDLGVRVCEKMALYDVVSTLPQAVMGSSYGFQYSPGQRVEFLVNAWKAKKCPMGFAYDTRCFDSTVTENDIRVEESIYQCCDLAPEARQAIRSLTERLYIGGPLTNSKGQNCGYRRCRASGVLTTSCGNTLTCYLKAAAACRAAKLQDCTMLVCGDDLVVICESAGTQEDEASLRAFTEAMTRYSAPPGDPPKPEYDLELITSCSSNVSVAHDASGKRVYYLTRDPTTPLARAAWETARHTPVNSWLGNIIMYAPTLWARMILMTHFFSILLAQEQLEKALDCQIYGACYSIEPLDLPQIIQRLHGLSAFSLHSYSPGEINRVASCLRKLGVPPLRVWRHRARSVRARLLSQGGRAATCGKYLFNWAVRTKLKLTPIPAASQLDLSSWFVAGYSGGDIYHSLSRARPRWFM

Row | Compound | hepatic toxicity (HCV; extended dosing of the combination regimens) | HCV RNA levels in patients (HCV; patients, single agent: transient decrease then rebound, more robust drop with interferon and ribavirin) | IC50 (HCV NS5B) [nM] | EC50 (HCV replicon) [nM] | sustained efficacy (HCV; combination therapy (Poynard et al. 1998))
1 | CNC(=O)c1c(-c2ccc(F)cc2)oc2cc(N(CCO)S(C)(=O)=O)c(C3CC3)cc12 [HCV-796] | hepatic toxicity observed | ability to reduce HCV RNA levels in patients |  |  | 
2 | CNC(=O)c1c(-c2ccc(F)cc2)oc2ccc(-c3cc(C(=O)NC4(c5ccc6ccncc6n5)CC4)ccc3C)cc12 |  |  | 5 | 3 | 
3 | alpha-interferon and ribavirin |  |  |  |  | 40 % of patients
4 | CNC(=O)c1c(-c2ccc(F)cc2)oc2ccc(-c3cc(C(=O)NC4(c5ccc6ccncc6n5)CC4)cc(F)c3C)c(F)c12 |  |  | 10 | 9 | 
5 | CNC(=O)c1c(-c2ccc(F)cc2)oc2ccc(-c3cc(C(=O)NC4(c5ccc6cnccc6n5)CC4)cc(F)c3C)c(F)c12 |  |  | 7 | 6 | 
6 | CNC(=O)c1c(-c2ccc(F)cc2)oc2ccc(-c3cc(C(=O)NC4(c5ccc6cccnc6n5)CC4)ccc3C)cc12 |  |  | 3 | 40 | 
7 | CNC(=O)c1c(-c2ccc(F)cc2)oc2ccc(-c3cc(C(=O)NC4(c5nc6ccncc6o5)CC4)c(OC)cc3C)c(F)c12 [4-fluoro-2-(4-fluorophenyl)-5-(4-methoxy-2-methyl-5-(1-(oxazolo[5,4-c]pyridin-2-yl)cyclopropylcarbamoyl)phenyl)-N-methylbenzofuran-3-carboxamide] |  |  | 20 | 4 | 

From patent publication US8354410B2 (Bristol-Meyers Squibb Company, priority 2010, dated 2013)
